Columns and labels:
full-length human LSD1 = full-length human LSD1 (Homo sapiens (Human), UniProt O60341); test: In vitro enzyme inhibition assay LSD-1 (TR-FRET); format: biochemical; details: H3K4me1-biotin peptide
Protocol: This assay determines the ability of a test compound to inhibit LSD1 demethylase activity.
The enzymatic assay of LSD1 activity is based on Time Resolved-Fluorescence Resonance Energy Transfer (TR-FRET) detection.
Plates were read by EnVision Multilabel Reader in TR-FRET mode (excitation at 320 nm, emission at 615 nm and 665 nm) after 1 hour incubation at room temperature.
The ability of the compounds disclosed herein to inhibit LSD1 activity was quantified and the respective IC50 value was determined.

THP-1 (AML) cells = test: LSD1 CD11b cellular assay (flow cytometry); format: cell-based; details: Homo sapiens, THP-1, 96 h; CD11b expressing cells, 4 days incubation
Protocol: To analyze LSD1 inhibitor efficacy in cells, a CD11b flow cytometry assay was performed. LSD1 inhibition induces CD11b expression in THP-1 (AML) cells which can be measured by flow cytometry. […] LSD1 test compounds were serially diluted in DMSO. The dilutions were added to each well accordingly to a final concentration of 0.2% DMSO. The cells were incubated at 37 degrees Celsius in 5% CO2 for 4 days. 250 μL of each well was transferred to a well in a 96 well round bottom plate. The plate was centrifuged at 1200 rpm at 4 degrees Celsius in a Beckman Coulter Alegra 6KR centrifuge for 5 minutes. The media was removed leaving the cells at the bottom of the wells. The cells were washed in 100 μL cold HBSS (Hank's Balanced Salt Solution) plus 2% BSA (Bovine Serum Albumin) solution and centrifuged at 1200 rpm at 4 degrees Celsius for 5 minutes. The wash was removed. […] The cells were centrifuged and washed two times in 100 μL HBSS plus 2% BSA. After the final spin the cells were resuspended in 100 μL HBSS plus 2% BSA containing 1 ug/mL DAPI (4′,6-diamidino-2-phenylindole). The cells were then analyzed by flow cytometry in a BD FACSAria machine. Cells were analyzed for CD11b expression. The percent of CD11b expressing cells for each inhibitor concentration was used to determine an IC50 curve for each compound analyzed.

With `N#Cc1ccc(-c2cn(Cc3ccccc3)c(=O)c(N3CCC(N)CC3)n2)cc1` [Example 1, 4-[6-(4-aminopiperidin-1-yl)-4-benzyl-5-oxo-4,5-dihydropyrazin-2-yl]benzonitrile] the IC50 (full-length human LSD1) was less than 100 nM and the IC50 (THP-1 (AML) cells) was 100 to 1000 nM.

For `Cc1ccc(Cn2cc(-c3ccc(C#N)cc3)nc(N3CCC(N)CC3)c2=O)cc1` [Example 2, 4-[6-(4-aminopiperidin-1-yl)-4-[(4-methylphenyl)methyl]-5-oxo-4,5-dihydropyrazin-2-yl]benzonitrile], the IC50 (full-length human LSD1) was less than 100 nM and the IC50 (THP-1 (AML) cells) was 100 to 1000 nM.

`N#Cc1ccc(-c2cn(Cc3ccccc3F)c(=O)c(N3CCC(N)CC3)n2)cc1` [Example 3, 4-[6-(4-aminopiperidin-1-yl)-4-[(2-fluorophenyl)methyl]-5-oxo-4,5-dihydropyrazin-2-yl]benzonitrile] showed an IC50 (full-length human LSD1) of less than 100 nM and an IC50 (THP-1 (AML) cells) of 100 to 1000 nM.

`N#Cc1ccc(-c2cn(Cc3cccc(Cl)c3)c(=O)c(N3CCC(N)CC3)n2)cc1` [Example 4, 4-[6-(4-aminopiperidin-1-yl)-4-(3-chloro-benzyl)-5-oxo-4,5-dihydro-pyrazin-2-yl]-benzonitrile] showed an IC50 (full-length human LSD1) of less than 100 nM and an IC50 (THP-1 (AML) cells) of 1000 to 10000 nM.

For `N#Cc1ccc(-c2cn(CC3CC3)c(=O)c(N3CCC(N)CC3)n2)cc1F` [Example 7, 4-[6-(4-amino-piperidin-1-yl)-4-cyclopropylmethyl-5-oxo-4,5-dihydro-pyrazin-2-yl]-2-fluoro-benzonitrile], the IC50 (full-length human LSD1) was less than 100 nM and the IC50 (THP-1 (AML) cells) was 1000 to 10000 nM.

In the case of `N#Cc1ccc(-c2cn(Cc3cccc(F)c3)c(=O)c(N3CCC(N)CC3)n2)cc1` [Example 8, 4-[6-(4-aminopiperidin-1-yl)-4-[(3-fluorophenyl)methyl]-5-oxo-4,5-dihydropyrazin-2-yl]benzonitrile], the IC50 (full-length human LSD1) is reported as less than 100 nM and the IC50 (THP-1 (AML) cells) is reported as 100 to 1000 nM.

With `N#Cc1ccc(-c2cn(Cc3ccc(F)cc3)c(=O)c(N3CCC(N)CC3)n2)cc1` [Example 9, 4-[6-(4-aminopiperidin-1-yl)-4-[(4-fluorophenyl)methyl]-5-oxo-4,5-dihydropyrazin-2-yl]benzonitrile] the IC50 (full-length human LSD1) was less than 100 nM and the IC50 (THP-1 (AML) cells) was 100 to 1000 nM.

With `COc1cccc(Cn2cc(-c3ccc(C#N)cc3)nc(N3CCC(N)CC3)c2=O)c1` [Example 10, 4-[6-(4-aminopiperidin-1-yl)-4-[(3-methoxyphenyl)methyl]-5-oxo-4,5-dihydropyrazin-2-yl]benzonitrile] the IC50 (full-length human LSD1) was less than 100 nM and the IC50 (THP-1 (AML) cells) was 100 to 1000 nM.

Work on `COc1ccc(Cn2cc(-c3ccc(C#N)cc3)nc(N3CCC(N)CC3)c2=O)cc1` [Example 11, 4-[6-(4-aminopiperidin-1-yl)-4-[(4-methoxyphenyl)methyl]-5-oxo-4,5-dihydropyrazin-2-yl]benzonitrile] yielded an IC50 (full-length human LSD1) of less than 100 nM and an IC50 (THP-1 (AML) cells) of 100 to 1000 nM.

`C[C@H](c1ccccc1)n1cc(-c2ccc(C#N)cc2)nc(N2CCC(N)CC2)c1=O` [Example 12, 4-[6-(4-aminopiperidin-1-yl)-5-oxo-4-[(1R)-1-phenylethyl]-4,5-dihydropyrazin-2-yl]benzonitrile] was tested, and the IC50 (full-length human LSD1) was less than 100 nM and the IC50 (THP-1 (AML) cells) was 1000 to 10000 nM.

Work on `C[C@@H](c1ccccc1)n1cc(-c2ccc(C#N)cc2)nc(N2CCC(N)CC2)c1=O` [Example 13, 4-[6-(4-aminopiperidin-1-yl)-5-oxo-4-[(1S)-1-phenylethyl]-4,5-dihydropyrazin-2-yl]benzonitrile] yielded an IC50 (full-length human LSD1) of less than 100 nM and an IC50 (THP-1 (AML) cells) of 1000 to 10000 nM.

`N#Cc1ccc(-c2cn(CC3CCOC3)c(=O)c(N3CCC(N)CC3)n2)cc1F` (stereo not shown) [Example 14, 4-[6-(4-amino-piperidin-1-yl)-5-oxo-4-(tetrahydro-furan-3-ylmethyl)-4,5-dihydro-pyrazin-2-yl]-2-fluoro-benzonitrile] gave an IC50 (full-length human LSD1) of less than 100 nM and an IC50 (THP-1 (AML) cells) of 100 to 1000 nM.

For `N#Cc1ccc(-c2cn(CC3CCOCC3)c(=O)c(N3CCC(N)CC3)n2)cc1F` [Example 15, 4-[6-(4-amino-piperidin-1-yl)-5-oxo-4-(tetrahydro-pyran-4-ylmethyl)-4,5-dihydro-pyrazin-2-yl]-2-fluoro-benzonitrile], the IC50 (full-length human LSD1) was less than 100 nM and the IC50 (THP-1 (AML) cells) was 100 to 1000 nM.

`Cc1ccc(-c2c(-c3ccc(C#N)cc3)nc(NC[C@H]3CCNC3)c(=O)n2C)cc1` [Example 17, 4-[4-methyl-3-(4-methylphenyl)-5-oxo-6-{[(3S)-pyrrolidin-3-ylmethyl]amino}-4,5-dihydropyrazin-2-yl]benzonitrile] gave an IC50 (full-length human LSD1) of less than 100 nM and an IC50 (THP-1 (AML) cells) of less than 100 nM.

In the case of `Cc1ccc(-c2c(-c3ccc(C#N)cc3)nc(NC[C@@H]3CCNC3)c(=O)n2C)cc1` [Example 18, 4-[4-methyl-3-(4-methylphenyl)-5-oxo-6-{[(3R)-pyrrolidin-3-ylmethyl]amino}-4,5-dihydropyrazin-2-yl]benzonitrile], the IC50 (full-length human LSD1) is reported as less than 100 nM and the IC50 (THP-1 (AML) cells) is reported as less than 100 nM.

For `Cc1ccc(-c2c(-c3ccc(C#N)nc3)nc(N3CCC(N)CC3)c(=O)n2C)cc1` [Example 19, 5-[6-(4-aminopiperidin-1-yl)-4-methyl-3-(4-methylphenyl)-5-oxo-4,5-dihydropyrazin-2-yl]pyridine-2-carbonitrile], the IC50 (full-length human LSD1) was less than 100 nM and the IC50 (THP-1 (AML) cells) was less than 100 nM.

`CNC1CCN(c2nc(-c3ccc(C#N)cc3)c(-c3ccc(C)cc3)n(C)c2=O)CC1` [Example 20, 4-{4-methyl-6-[4-(methylamino)piperidin-1-yl]-3-(4-methylphenyl)-5-oxo-4,5-dihydropyrazin-2-yl}benzonitrile] was tested, and the IC50 (full-length human LSD1) was less than 100 nM and the IC50 (THP-1 (AML) cells) was less than 100 nM.

`Cc1ccc(-c2c(-c3ccc(C#N)cc3)nc(N3CCC(C)(N)CC3)c(=O)n2C)cc1` [Example 21, 4-[6-(4-amino-4-methylpiperidin-1-yl)-4-methyl-3-(4-methylphenyl)-5-oxo-4,5-dihydropyrazin-2-yl]benzonitrile] was tested, and the IC50 (full-length human LSD1) was less than 100 nM and the IC50 (THP-1 (AML) cells) was 100 to 1000 nM.

With `Cc1ccc(-c2c(-c3ccc(C#N)cc3)nc(N3CCCC(N)C3)c(=O)n2C)cc1` (stereo not shown) [Example 22, 4-[6-(3-aminopiperidin-1-yl)-4-methyl-3-(4-methylphenyl)-5-oxo-4,5-dihydropyrazin-2-yl]benzonitrile] the IC50 (full-length human LSD1) was less than 100 nM and the IC50 (THP-1 (AML) cells) was less than 100 nM.

With `Cc1ccc(-c2c(-c3ccc(C#N)cc3)nc(N3CCC4CNCC4C3)c(=O)n2C)cc1` (stereo not shown) [Example 23, 4-[4-methyl-3-(4-methylphenyl)-6-{octahydro-1H-pyrrolo[3,4-c]pyridin-5-yl}-5-oxo-4,5-dihydropyrazin-2-yl]benzonitrile] the IC50 (full-length human LSD1) was less than 100 nM and the IC50 (THP-1 (AML) cells) was less than 100 nM.

In the case of `Cc1ccc(-c2c(-c3ccc(C#N)cc3)nc(N3CCC4(CCNC4)CC3)c(=O)n2C)cc1` [Example 24, 4-(6-{2,8-diazaspiro[4.5]decan-8-yl}-4-methyl-3-(4-methylphenyl)-5-oxo-4,5-dihydropyrazin-2-yl)benzonitrile], the IC50 (full-length human LSD1) is reported as less than 100 nM and the IC50 (THP-1 (AML) cells) is reported as less than 100 nM.

`Cc1ccc(-c2c(-c3ccc(C#N)cc3)nc(N3CCC4CNCC4CC3)c(=O)n2C)cc1` (stereo not shown) [Example 25, 4-(6-{decahydropyrrolo[3,4-d]azepin-6-yl}-4-methyl-3-(4-methylphenyl)-5-oxo-4,5-dihydropyrazin-2-yl)benzonitrile] showed an IC50 (full-length human LSD1) of less than 100 nM and an IC50 (THP-1 (AML) cells) of less than 100 nM.

Work on `CCn1c(-c2ccc(C)cc2)c(-c2ccc(C#N)cc2)nc(N2CCC(N)CC2)c1=O` [Example 26, 4-[6-(4-aminopiperidin-1-yl)-4-ethyl-3-(4-methylphenyl)-5-oxo-4,5-dihydropyrazin-2-yl]benzonitrile] yielded an IC50 (full-length human LSD1) of less than 100 nM and an IC50 (THP-1 (AML) cells) of less than 100 nM.

`CCc1ccc(-c2c(-c3ccc(C#N)cc3)nc(N3CCC(N)CC3)c(=O)n2C)cc1` [Example 27, 4-[6-(4-aminopiperidin-1-yl)-3-(4-ethylphenyl)-4-methyl-5-oxo-4,5-dihydropyrazin-2-yl]benzonitrile] gave an IC50 (full-length human LSD1) of less than 100 nM and an IC50 (THP-1 (AML) cells) of less than 100 nM.

For `CCc1ccc(-c2c(-c3ccc(C#N)cc3)nc(NC[C@@H]3CCNC3)c(=O)n2C)cc1` [Example 29, 4-[3-(4-ethylphenyl)-4-methyl-5-oxo-6-{[(3R)-pyrrolidin-3-ylmethyl]amino}-4,5-dihydropyrazin-2-yl]benzonitrile], the IC50 (full-length human LSD1) was less than 100 nM and the IC50 (THP-1 (AML) cells) was 100 to 1000 nM.

Molecule `COc1ccc(-c2c(-c3ccc(C#N)cc3)nc(N3CCC(N)CC3)c(=O)n2C)cc1` [Example 30, 4-[6-(4-aminopiperidin-1-yl)-3-(4-methoxyphenyl)-4-methyl-5-oxo-4,5-dihydropyrazin-2-yl]benzonitrile] has an IC50 (full-length human LSD1) of less than 100 nM and an IC50 (THP-1 (AML) cells) of less than 100 nM.

`COc1ccc(-c2c(-c3ccc(C#N)cc3)nc(NC[C@@H]3CCNC3)c(=O)n2C)cc1` [Example 32, 4-[3-(4-methoxyphenyl)-4-methyl-5-oxo-6-{[(3R)-pyrrolidin-3-ylmethyl]amino}-4,5-dihydropyrazin-2-yl]benzonitrile] was tested, and the IC50 (full-length human LSD1) was less than 100 nM and the IC50 (THP-1 (AML) cells) was 100 to 1000 nM.

`CCn1c(-c2ccc(OC)cc2)c(-c2ccc(C#N)c(F)c2)cc(N2CCC(N)CC2)c1=O` [Example 87, 4-[5-(4-aminopiperidin-1-yl)-1-ethyl-2-(4-methoxyphenyl)-6-oxopyridin-3-yl]-2-fluorobenzonitrile] gave an IC50 (THP-1 (AML) cells) of less than 100 nM.
